Experiments:
[1] = system: lysine decarboxylase; conditions: Mycoplasma dispar; cited from earlier work
[2] = target: T1, lysine decarboxylase (Selenomonas ruminantium, UniProt O50657); conditions: cited from earlier work
T1 construct: host or cells: Selenomonas ruminantium

[3] = system: HL60 cells; type: cell-based; conditions: FIG. 3; control 0.22 mM lysine; 0.72 mM lysine and/or 0.42 mM EACA
Protocol: Graphs show the percent growth inhibition after 96 h (2A) and the percent lysine remaining (2B) after 40 h incubation (obtained as described in legend to FIG. 1).

[4] = target: lysine decarboxylase (Eikenella corrodens, UniProt Q9Z4R7); assay: Cadaverine production by E. corrodens extract as a function of initial lysine concentration; type: biochemical; conditions: 0.42 mM EACA
Protocol: FIGS. 4A and 4B are graphs showing cadaverine production as a function of initial lysine concentration in the presence and absence of […] ε-amino-n-caproic acid (EACA). […] Initial rate of cadaverine produced (from 0.3 μg E. corrodens extract protein/ml) graphed against the initial lysine concentration. A. Cadaverine produced after 20 min: Enzyme only: .circle-solid.-.circle-solid.; with 0.42 ImM EACA .smallcircle. . . . .smallcircle.. B. Enlarged inset, cadaverine produced after 16 h (limited substrate): Enzyme only .circle-solid.-.circle-solid.; with 0.42 mM EACA .smallcircle. . . . .smallcircle..
The results of FIG. 1 were obtained when 0.1 ml of E. corrodens extract (10 μg protein/ml), or plaque extract (100 μg protein/ml) was added to 0.5×10^5 HL60 cells or 2×10^5 HeLa cells in 0.5 ml growth medium in 48-well plates (Costar, Cambridge, Mass.). The cells were incubated for 96 h at 37° C. in 5% CO2 in air, examined visually and counted on a Coulter Counter (Coulter Electronics Hialeah, Fla.). […] The samples were incubated at 43° C. for 5.0 min, vortexed with 2.0 ml toluene for 20 sec, centrifuged at 2,000 rpm for 5 min and the absorbance of the toluene layer read at 340 nm. From a standard curve, the cadaverine produced was measured and subtracted from the amount of free lysine initially in the medium plus extract after 16 h or 40 h. […]

[5] = target: T2, lysine decarboxylase (Escherichia coli, UniProt P0A9H3); conditions: cited from earlier work
T2 construct: host or cells: Escherichia coli

[6] = system: lysine decarboxylase; assay: Lysine decarboxylase activity in Mycoplasma dispar; type: biochemical; conditions: half of the DL-form inhibiting values
[7] = target: T1, lysine decarboxylase; assay: Lysine decarboxylase activity in Selenomonas ruminantium; type: biochemical; conditions: half of the DL-form inhibiting values, read-out: Equivalent L inhibitory values

T1 sequence (O50657 whole entry): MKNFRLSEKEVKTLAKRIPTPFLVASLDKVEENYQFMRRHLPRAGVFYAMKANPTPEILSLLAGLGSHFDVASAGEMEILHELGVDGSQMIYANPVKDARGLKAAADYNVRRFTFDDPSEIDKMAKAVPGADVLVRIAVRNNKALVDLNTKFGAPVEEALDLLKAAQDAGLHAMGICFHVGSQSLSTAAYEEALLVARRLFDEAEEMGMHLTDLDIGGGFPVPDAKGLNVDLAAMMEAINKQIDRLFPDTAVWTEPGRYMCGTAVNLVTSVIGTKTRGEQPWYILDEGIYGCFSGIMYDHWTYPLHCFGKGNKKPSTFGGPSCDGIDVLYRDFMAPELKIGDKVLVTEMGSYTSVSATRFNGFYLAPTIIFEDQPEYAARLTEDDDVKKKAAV
Chain of lysine decarboxylase (Eikenella corrodens, UniProt Q9Z4R7) (Q9Z4R7 entry or part of it): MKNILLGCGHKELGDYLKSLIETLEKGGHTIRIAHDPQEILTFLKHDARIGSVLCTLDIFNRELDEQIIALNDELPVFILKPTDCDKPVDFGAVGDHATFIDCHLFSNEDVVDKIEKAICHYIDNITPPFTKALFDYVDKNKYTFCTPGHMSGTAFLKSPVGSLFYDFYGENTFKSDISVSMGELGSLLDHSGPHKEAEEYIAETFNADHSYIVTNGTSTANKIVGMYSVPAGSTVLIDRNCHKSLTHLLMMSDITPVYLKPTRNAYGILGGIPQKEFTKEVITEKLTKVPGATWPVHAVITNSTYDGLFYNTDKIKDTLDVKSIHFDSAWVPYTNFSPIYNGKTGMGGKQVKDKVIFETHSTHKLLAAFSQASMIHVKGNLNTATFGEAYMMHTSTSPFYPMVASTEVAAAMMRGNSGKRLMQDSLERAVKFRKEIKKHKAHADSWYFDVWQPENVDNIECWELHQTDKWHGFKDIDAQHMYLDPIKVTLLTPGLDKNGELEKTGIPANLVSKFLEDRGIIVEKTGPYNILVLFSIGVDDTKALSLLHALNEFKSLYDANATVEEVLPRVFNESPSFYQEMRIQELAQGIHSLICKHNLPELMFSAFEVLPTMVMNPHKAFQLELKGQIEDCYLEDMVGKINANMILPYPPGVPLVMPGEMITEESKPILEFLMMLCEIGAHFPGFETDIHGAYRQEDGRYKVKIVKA
T2 sequence (P0A9H3 whole entry): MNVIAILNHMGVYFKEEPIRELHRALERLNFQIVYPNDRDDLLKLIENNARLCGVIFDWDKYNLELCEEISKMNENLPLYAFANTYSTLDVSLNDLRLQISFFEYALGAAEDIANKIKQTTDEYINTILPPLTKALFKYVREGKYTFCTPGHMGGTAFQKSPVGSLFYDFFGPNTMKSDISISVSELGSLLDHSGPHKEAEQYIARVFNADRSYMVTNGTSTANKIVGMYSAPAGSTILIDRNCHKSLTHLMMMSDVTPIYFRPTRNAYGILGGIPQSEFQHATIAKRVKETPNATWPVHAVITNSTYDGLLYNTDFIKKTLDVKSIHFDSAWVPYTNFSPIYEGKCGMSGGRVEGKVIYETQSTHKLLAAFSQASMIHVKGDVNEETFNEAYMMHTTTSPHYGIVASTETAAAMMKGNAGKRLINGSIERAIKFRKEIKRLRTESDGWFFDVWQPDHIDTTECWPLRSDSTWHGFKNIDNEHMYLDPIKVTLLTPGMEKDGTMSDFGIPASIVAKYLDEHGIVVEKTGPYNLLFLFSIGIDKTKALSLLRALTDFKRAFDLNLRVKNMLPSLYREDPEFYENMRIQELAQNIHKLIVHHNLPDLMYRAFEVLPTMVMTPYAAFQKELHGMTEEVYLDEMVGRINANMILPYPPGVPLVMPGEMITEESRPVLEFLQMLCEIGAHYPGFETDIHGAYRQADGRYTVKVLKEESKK

## N=C(N)NCCCC(N)(C(=O)O)C(F)F (racemic) [DFMR]
[1]
  Effect on lysine decarboxylase activity: no effect
[2]
  Effect on lysine decarboxylase activity: no effect

## NCCCC[C@H](N)C(=O)O [lysine]
[3]
  Effect on growth inhibiting activity of E. corrodens extract: decreased the growth inhibiting activity

## NCCCC(N)(C(=O)O)C(F)F (racemic) [DFMO]
[1]
  Effect on lysine decarboxylase activity: no effect
[2]
  Effect on lysine decarboxylase activity: no effect

## NCCCCCC(=O)O [EACA, ε-amino-n-caproic acid]
[3]
  Effect on growth inhibiting activity of E. corrodens extract: increased the growth inhibition
[4]; high lysine concentrations
  Effect on the E. corrodens enzyme at high lysine concentrations: inhibits the enzyme
[4]; lysine 0.22-0.72 mM as in growth media
  Effect on the E. corrodens enzyme at low lysine concentrations: activates the enzyme
[5]
  Effect on lysine decarboxylase from E. coli: inhibits

## NCCCC[C@](N)(C(=O)O)C(F)F [L-DFML]
[6]
  Equivalent L inhibitory values: 0.05 to 0.50 mM
[7]
  IC100: 50 to 500 µM

From patent US6187296A, “Lysine decarboxylase inhibitors for the prevention and treatment of periodontal disease” (priority 2000, dated 2001)
